From patent US12714696B2, “Low dose fluralaner compositions for protection against parasitic invertebrate pest” (VIRBAC, priority 2019, dated 2026)
Like-named read-outs stand apart in the source and are kept apart here.

Columns and labels:
[1] = cited from earlier work
[2] = Adverse event observation, oral study against fleas; assay type: in vivo, beagle dogs; conditions: oral 35 μg/kg Days 0-3, dogs
Protocol: Dogs were observed hourly±15 minutes for four hours after administration on Day 0 and once daily two hours±15 minutes after Investigational Veterinary Product or control product administration on Days 1, 2 and 3. Observations were conducted for each individual dog.

[3] = plasma pK in dogs; fluralaner 56 mg/kg; cited from earlier work
C. felis fleas = experiment: Efficacy against fleas on dogs, oral 35 μg/kg study; assay type: in vivo
Protocol: The second objective was to investigate the pharmacodynamics between the fluralaner plasmatic dose and the effectiveness against fleas. • IVP: Investigational Veterinary Product, is pure Fluralaner+DMSO (35 μg/kg on Days 0 to 3 (0.35 mL/kg)) • Control product is DMSO (0.35 mL/kg on Days 0 to 3)
On Days 0, 1, 2 and 3, all dogs assigned to group 2 received the Investigational Veterinary Product. On Days 0 to 3 all dogs in group 1 received the control product at a volume equal to the dogs in group 2. Dogs assigned to group 1 received the control product and served as Placebo controls. The quantity of Investigational Veterinary Product and control product administered was calculated according to the dog's individual body weight measured on Day −1.
Dogs were infested with approximately 100 (±8) viable, adult, C. felis fleas on Day −6 for randomisation purposes and on Days 1, 2 and 3 to assess efficacy. Fleas were removed and counted on Days −5, 2, 3 and 4 (24 hours±2 hours after infestation). Dogs were also infested with approximately 50 (±4) viable, adult, unfed R. sanguineus ticks on Day 4 to assess acaricidal efficacy. Ticks will be removed and counted on Day 5 (24 hours±2 hours after infestation).
(§1) The efficacy against ticks and fleas were calculated for the study groups at each assessment day according to the formulas given below.
(§2) Efficacy was calculated as follows: Efficacy (%)=100×(Mc−Mt)/Mc, where: • Mc=Mean number of live ticks (categories 1 to 2) or live fleas on dogs in the negative control group (group 1) at a specific time point. • Mt=Mean number of live ticks (categories 1 to 2) or live fleas on dogs in the IVP group (group 2) • at a specific time point.

Rhipicephalus sanguineus = experiment: Efficacy against ticks on dogs, oral 250/35/600 μg/kg study; assay type: in vivo; conditions: for Percentage efficacy using geometric mean, live ticks / live ticks, geometric mean, Group 2: oral 250/35/600 μg/kg regimen, dogs
Protocol: The second objective is to investigate the pharmacodynamics between the fluralaner plasmatic dose and the effectiveness against ticks. • IVP: Investigational Veterinary Product, is pure Fluralaner+DMSO (250 μg/kg on Days 0 to 3 (0.25 mL/kg), then 35 μg/kg on Days 4 to 9 (0.35 mL/kg), then 600 μg/kg on Day 11) • Control product is DMSO (0.25 mL/kg on Days 0 to 3, then 0.35 mL/kg on Days 4 to 9)
Dogs were infested with approximately 50 (±4) viable, adult, unfed R. sanguineus ticks on Days 1, 3, 5, 8, 10, 12, 16, 22, 26 and 30 to assess efficacy. Ticks will be removed and counted on Days 3, 5, 7 (48 hours±2 hours after infestation) and 9, 11, 13, 17, […], 27, 32 (24 hours±2 hours after infestation). Dogs were also infested with approximately 100 (±8) viable, adult, C. felis fleas on Day −6 (±1 day) for randomisation purposes and on Day 2 to assess efficacy. Fleas will be removed and counted on Days −5 (+1 day) and 3 (24 hours±2 hours after infestation).
as §1
Efficacy calculations based on geometric mean values were, however, also reported on. Such calculations were based on the geometric mean values of the tick or flea (count+1) data. One (1) was subsequently subtracted from the result to obtain a meaningful value for the geometric mean of each group.
as §2

[4] = Intravenous 12.5 mg/kg, single, dogs, n = 6, mean ± standard deviation
[5] = Oral 12.5 mg/kg, single, dogs, n = 6, mean ± standard deviation
[6] = Oral 25.0 mg/kg, single, dogs, n = 6, mean ± standard deviation
[7] = Oral 50.0 mg/kg, single, dogs, n = 6, mean ± standard deviation
[8] = literature data (Table 6; equals Oral 50.0 mg/kg of Table 5)

Cc1cc(C2=NOC(c3cc(Cl)cc(Cl)c3)(C(F)(F)F)C2)ccc1C(=O)NCC(=O)NCC(F)(F)F (centres unmarked) [fluralaner, Fluralaner]
AUC(0-d112) [1, 4]: 87198 ± 11835 ng·days/mL | AUC(0→∞) [1, 4]: 87779 ± 12004 ng·days/mL | Cl [1, 4]: 5.83 ± 0.83 mL/h/kg | Cmax [1, 4]: 7109 ± 908 ng/mL | MRT [1, 4]: 20 ± 3 days | Vz [1, 4]: 3.1 ± 0.5 L/kg | t1/2 [1, 4]: 15 ± 2 days | tmax ([1]; Oral 12.5 mg/kg, single, dogs, n = 6, Median): 1 (range 0.08-2) day | AUC(0-d112) [1, 5]: 29665 ± 13858 ng·days/mL | AUC(0→∞) [1, 5]: 29922 ± 13808 ng·days/mL | Cmax [1, 5]: 2144 ± 860 ng/mL | MRT [1, 5]: 19 ± 2 days | t1/2 [1, 5]: 13 ± 1 days | tmax ([1]; Oral 25.0 mg/kg, single, dogs, n = 6, Median): 1 (range 1-2) day | AUC(0-d112) [1, 6]: 46115 ± 18932 ng·days/mL | AUC(0→∞) [1, 6]: 46416 ± 18929 ng·days/mL | Cmax [1, 6]: 3948 ± 1734 ng/mL | MRT [1, 6]: 15 ± 4 days | t1/2 [1, 6]: 12 ± 3 days | tmax ([1]; Oral 50.0 mg/kg, single, dogs, n = 6, Median): 1 (range 0.17-3) day | AUC(0-d112) [1, 7]: 70171 ± 26412 ng·days/mL | AUC(0→∞) [1, 7]: 70531 ± 26529 ng·days/mL | Cmax [1, 7]: 5419 ± 2086 ng/mL | MRT [1, 7]: 17 ± 3 days | t1/2 [1, 7]: 14 ± 1 days | AUCtot [1, 8]: 70531 µg·days/L | Cmax [1, 8]: 5419 ng/mL | t1/2 [1, 8]: 14 days | tmax [1, 8]: 1 days | Adverse Events as a result of the product [2]: No Adverse Events | interference between fluralaner and ivermectin [3]: absence of interference | efficacy against fleas (C. felis fleas; 24 h after the first three doses of 35 μg/kg per day, dogs): 100% | efficacy against fleas (C. felis fleas; 24 h after the first two doses of 35 μg/kg per day, dogs): 99.6% | efficacy against fleas (C. felis fleas; after the fourth and final dose of 35 μg/kg per day, dogs): 99.8% | efficacy against fleas from 24 hours after administration (C. felis fleas; infestation at D1, first measurement at D2, whatever the dose): high efficacy | efficacy against fleas (C. felis fleas; period Day 2 to Day 4, 24 hours after infestation, oral 35 μg/kg Days 0-3, dogs): 100% | Percentage efficacy using geometric mean, live ticks (Rhipicephalus sanguineus; Day 3): 100 | live ticks, geometric mean, Group 2 (Rhipicephalus sanguineus; Day 3): 0.0 | Percentage efficacy using geometric mean, live ticks (Rhipicephalus sanguineus; Day 5): 100 | live ticks, geometric mean, Group 2 (Rhipicephalus sanguineus; Day 5): 0.0 | Percentage efficacy using geometric mean, live ticks (Rhipicephalus sanguineus; Day 7): 100 | live ticks, geometric mean, Group 2 (Rhipicephalus sanguineus; Day 7): 0.0 | Percentage efficacy using geometric mean, live ticks (Rhipicephalus sanguineus; Day 9): 47.3 | live ticks, geometric mean, Group 2 (Rhipicephalus sanguineus; Day 9): 11.8 | Percentage efficacy using geometric mean, live ticks (Rhipicephalus sanguineus; Day 11): 77.8 | live ticks, geometric mean, Group 2 (Rhipicephalus sanguineus; Day 11): 7.8 | Percentage efficacy using geometric mean, live ticks (Rhipicephalus sanguineus; Day 13): 85.0 | live ticks, geometric mean, Group 2 (Rhipicephalus sanguineus; Day 13): 4.5 | Percentage efficacy using geometric mean, live ticks (Rhipicephalus sanguineus; Day 17): 80.8 | live ticks, geometric mean, Group 2 (Rhipicephalus sanguineus; Day 17): 5.1 | Percentage efficacy using geometric mean, live ticks (Rhipicephalus sanguineus; Day 23): 46.1 | Percentage efficacy using geometric mean, live ticks (Rhipicephalus sanguineus; Day 27): 78.9 | live ticks, geometric mean, Group 2 (Rhipicephalus sanguineus; Day 27): 6.8 | Percentage efficacy using geometric mean, live ticks (Rhipicephalus sanguineus; Day 31): 56.1 | efficacy against ticks from the first day after treatment (Rhipicephalus sanguineus; infestation at D1, first measurement at D3): present | efficacy against ticks (Rhipicephalus sanguineus; period during the first four doses of 250 μg/kg per day and the following three doses of 35 μg/kg per day): 100%
